According to PMC9299988, “Substrate‐Inspired Fragment Merging and Growing Affords Efficacious LasB Inhibitors” (Angewandte Chemie (International Ed. in English), 2021):
Read-outs that look alike come from different tables or passages of the source.

Columns and labels:
LasB [1] = target: T1, LasB (Pseudomonas aeruginosa, UniProt Q02RJ6); experiment: biochemical; type: biochemical
T1 construct: The purification of LasB from P. aeruginosa P14 supernatant and the; made in house; host or cells: P. aeruginosa PA14 (native producer), culture supernatant
Procedure: LasB Inhibition Assay. […]
(§1) Preparation of P. aeruginosa supernatant and LasB activity evaluation. A culture of a single colony of PA14 was grown in lysogeny broth medium at 28 °C with constant shaking at 130 rpm for 3 days. Then, the culture was centrifuged at 4 °C, 5000 rpm for 30 minutes. Finally, the supernatant was passed through a membrane filter of […] to sterilize it. The supernatant

[2] = Cytotoxicity assay, HepG2; conditions: human, HepG2 cells
MMP-1 = target: T2, MMP-1 (Homo sapiens, UniProt P03956); experiment: Inhibition assay with human off-target MMP-1; type: biochemical; conditions: Table S2; concentration not given
T2 sequence (P03956 100-469): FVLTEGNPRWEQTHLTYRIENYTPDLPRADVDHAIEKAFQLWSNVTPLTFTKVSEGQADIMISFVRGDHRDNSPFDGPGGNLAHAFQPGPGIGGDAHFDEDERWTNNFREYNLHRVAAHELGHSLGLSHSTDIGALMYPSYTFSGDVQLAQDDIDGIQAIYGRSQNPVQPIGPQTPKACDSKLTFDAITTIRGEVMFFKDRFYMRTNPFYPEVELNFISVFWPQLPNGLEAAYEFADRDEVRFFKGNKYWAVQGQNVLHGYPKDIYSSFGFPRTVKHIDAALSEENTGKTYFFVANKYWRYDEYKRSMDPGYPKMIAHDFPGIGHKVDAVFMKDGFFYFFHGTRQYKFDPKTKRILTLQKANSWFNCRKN

MMP-14 = MMP-14 (Homo sapiens, UniProt P50281); experiment: Inhibition assay with human off-target MMP-14; type: biochemical; conditions: Table S2; concentration not given
MMP-8 = MMP-8 (Homo sapiens, UniProt P22894); experiment: Inhibition assay with human off-target MMP-8; type: biochemical; conditions: Table S2; concentration not given
MMP-2 = target: T3, MMP-2 (Homo sapiens, UniProt P08253); experiment: Inhibition assay with human off-target MMP-2; type: biochemical; conditions: Table S2; concentration not given
T3 sequence (P08253 110-660): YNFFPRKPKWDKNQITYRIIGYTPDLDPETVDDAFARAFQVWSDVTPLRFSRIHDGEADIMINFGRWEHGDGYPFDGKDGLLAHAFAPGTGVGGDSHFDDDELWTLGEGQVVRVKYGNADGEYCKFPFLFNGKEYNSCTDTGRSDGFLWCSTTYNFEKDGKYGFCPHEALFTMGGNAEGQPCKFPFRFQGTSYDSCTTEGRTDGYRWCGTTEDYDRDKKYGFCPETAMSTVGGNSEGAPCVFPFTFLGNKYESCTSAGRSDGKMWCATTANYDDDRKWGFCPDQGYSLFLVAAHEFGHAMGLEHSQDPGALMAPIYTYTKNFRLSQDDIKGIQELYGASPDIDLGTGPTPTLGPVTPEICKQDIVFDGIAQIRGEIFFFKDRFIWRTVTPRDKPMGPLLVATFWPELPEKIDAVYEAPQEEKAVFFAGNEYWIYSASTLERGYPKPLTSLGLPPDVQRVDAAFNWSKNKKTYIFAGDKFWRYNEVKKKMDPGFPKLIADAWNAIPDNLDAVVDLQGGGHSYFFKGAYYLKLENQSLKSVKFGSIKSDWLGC

P. aeruginosa PA14 = experiment: Minimum inhibitory concentration (MIC) assay; type: cell-based, Pseudomonas aeruginosa
MMP-3 = MMP-3 (Homo sapiens, UniProt P08254); experiment: Inhibition assay with human off-target MMP-3; type: biochemical; conditions: Table S2; concentration not given
HDAC-3 = HDAC-3 (Homo sapiens, UniProt O15379); experiment: Inhibition assay with human off-target HDAC-3; type: biochemical; conditions: Table S2
Cytotoxicity assay, A549 = conditions: human, A549 cells
HDAC-8 = target: T4, HDAC-8 (Homo sapiens, UniProt Q9BY41); experiment: Inhibition assay with human off-target HDAC-8; type: biochemical; conditions: Table S2
T4 sequence (Q9BY41 1-377): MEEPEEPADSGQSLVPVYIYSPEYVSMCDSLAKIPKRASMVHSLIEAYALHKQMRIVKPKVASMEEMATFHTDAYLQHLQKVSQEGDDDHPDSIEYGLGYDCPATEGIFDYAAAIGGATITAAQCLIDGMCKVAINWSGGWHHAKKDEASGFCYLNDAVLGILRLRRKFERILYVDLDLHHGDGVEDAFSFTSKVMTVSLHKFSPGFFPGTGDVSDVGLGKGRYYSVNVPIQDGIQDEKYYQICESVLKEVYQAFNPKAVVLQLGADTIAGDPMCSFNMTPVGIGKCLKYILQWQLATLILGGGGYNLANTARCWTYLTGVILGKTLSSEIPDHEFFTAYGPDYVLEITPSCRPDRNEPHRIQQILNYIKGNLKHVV

MMP-7 = target: T5, MMP-7 (Homo sapiens, UniProt P09237); experiment: Inhibition assay with human off-target MMP-7; type: biochemical; conditions: Table S2; concentration not given
T5 sequence (P09237 95-267): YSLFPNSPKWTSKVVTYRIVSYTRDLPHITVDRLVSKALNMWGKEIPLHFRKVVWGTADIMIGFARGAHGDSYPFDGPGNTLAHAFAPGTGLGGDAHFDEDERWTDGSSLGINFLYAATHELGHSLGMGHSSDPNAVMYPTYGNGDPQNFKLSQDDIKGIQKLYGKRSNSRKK

[3] = Cytotoxicity assay, HEK 293; conditions: human, HEK 293 cells
LasB [4] = target: T1, LasB; experiment: Calculation of Ligand Efficiency (LE) and Lipophilic Ligand Efficiency (LLE); conditions: calculated
Excerpt: Although structure‐guided exploration of the N‐aryl ring substitution provided us with a strong starting point for lead optimization, systematic variation of the substituent in the α‐position (R^1) should be considered to exploit the lipophilicity of the S2′ pocket. In addition, compound 7 g only occupies a small fraction (approx. 24%) of the total predicted binding pocket volume, leaving the S2′ pocket largely untouched (Figure S4). Therefore, extension of the thiol group in that direction should allow additional ligand‐protein interactions, leading to a further improved inhibitory potency. […]

[5] = system: Galleria mellonella larvae; experiment: Galleria mellonella larvae survival model with P. aeruginosa PA14 supernatant; type: in vivo; conditions: for survival of larvae: 0.25 nmol compound injected with PA14 supernatant, three days of incubation, compared to PBS injected larvae; for survival of larvae, compound in PBS: compound in PBS without PA14 supernatant
Procedure: We next analyzed the antivirulence activity of LasB inhibitors in vivo, using a simple model based on G. mellonella larvae. […] We injected the larvae with the supernatant (s.n.) of P. aeruginosa PA14 with or without 0.25 nmol of either 4 or 7 g, incubated them for three days and recorded the survival once per day (Figure 3). […] Treatment of larvae with 0.25 nmol of compound 7 g increased survival up to 60% compared to PBS injected larvae.
PA14 s.n. was also present during compound treatment. PBS served as a negative control (dot dash). […]
as §1

ADAM17 = ADAM17 (Homo sapiens, UniProt P78536); experiment: Inhibition assay with human off-target ADAM17 (TACE); type: biochemical
LasB [6] = target: T1, LasB; conditions: read-out: IC50 (known LasB inhibitors); Figure 1, known LasB inhibitors; cited from earlier work
[7] = system: human hepatoma cell line (HepG2); experiment: Cytotoxicity assay, HepG2; conditions: HepG2, at 100 µM
in vitro [8] = conditions: human
in vitro [9] = conditions: human; remark: listed apart in the source
in vitro [10] = conditions: human; remark: listed apart in the source
[11] = system: human embryonic kidney (HEK) 293 cells; experiment: Cytotoxicity assay, HEK 293; conditions: HEK cells, at 100 µM

T1 sequence (Q02RJ6 198-498): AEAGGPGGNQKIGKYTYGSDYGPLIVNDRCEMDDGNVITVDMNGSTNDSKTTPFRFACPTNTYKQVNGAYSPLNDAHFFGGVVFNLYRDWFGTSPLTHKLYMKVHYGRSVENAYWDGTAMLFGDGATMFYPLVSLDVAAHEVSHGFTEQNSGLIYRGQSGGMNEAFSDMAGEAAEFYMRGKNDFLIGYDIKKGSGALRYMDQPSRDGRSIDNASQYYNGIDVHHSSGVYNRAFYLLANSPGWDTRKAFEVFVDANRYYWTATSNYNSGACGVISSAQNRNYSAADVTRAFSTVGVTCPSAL
MMP-3, sequence (P08254 100-477): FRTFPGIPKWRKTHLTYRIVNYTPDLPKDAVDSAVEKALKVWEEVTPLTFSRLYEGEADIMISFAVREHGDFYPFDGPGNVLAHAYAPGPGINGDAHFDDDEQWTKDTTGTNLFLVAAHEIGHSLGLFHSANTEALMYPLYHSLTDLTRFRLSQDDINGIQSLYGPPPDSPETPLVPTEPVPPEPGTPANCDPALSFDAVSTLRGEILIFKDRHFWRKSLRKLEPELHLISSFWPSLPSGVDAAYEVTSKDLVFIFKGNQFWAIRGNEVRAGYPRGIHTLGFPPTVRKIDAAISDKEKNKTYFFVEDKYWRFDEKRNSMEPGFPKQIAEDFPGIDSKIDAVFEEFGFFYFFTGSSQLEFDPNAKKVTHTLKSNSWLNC
MMP-8, sequence (P22894 101-467): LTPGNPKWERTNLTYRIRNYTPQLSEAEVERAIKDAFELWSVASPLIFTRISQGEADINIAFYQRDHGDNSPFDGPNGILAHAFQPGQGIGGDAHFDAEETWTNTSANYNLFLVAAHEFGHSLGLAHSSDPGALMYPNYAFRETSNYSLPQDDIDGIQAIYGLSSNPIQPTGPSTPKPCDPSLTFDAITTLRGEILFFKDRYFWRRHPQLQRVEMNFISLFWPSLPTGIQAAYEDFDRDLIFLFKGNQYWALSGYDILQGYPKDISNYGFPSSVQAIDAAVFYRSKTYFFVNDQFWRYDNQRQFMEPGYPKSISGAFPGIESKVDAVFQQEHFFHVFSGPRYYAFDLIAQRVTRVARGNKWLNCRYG
ADAM17, sequence (P78536 215-824): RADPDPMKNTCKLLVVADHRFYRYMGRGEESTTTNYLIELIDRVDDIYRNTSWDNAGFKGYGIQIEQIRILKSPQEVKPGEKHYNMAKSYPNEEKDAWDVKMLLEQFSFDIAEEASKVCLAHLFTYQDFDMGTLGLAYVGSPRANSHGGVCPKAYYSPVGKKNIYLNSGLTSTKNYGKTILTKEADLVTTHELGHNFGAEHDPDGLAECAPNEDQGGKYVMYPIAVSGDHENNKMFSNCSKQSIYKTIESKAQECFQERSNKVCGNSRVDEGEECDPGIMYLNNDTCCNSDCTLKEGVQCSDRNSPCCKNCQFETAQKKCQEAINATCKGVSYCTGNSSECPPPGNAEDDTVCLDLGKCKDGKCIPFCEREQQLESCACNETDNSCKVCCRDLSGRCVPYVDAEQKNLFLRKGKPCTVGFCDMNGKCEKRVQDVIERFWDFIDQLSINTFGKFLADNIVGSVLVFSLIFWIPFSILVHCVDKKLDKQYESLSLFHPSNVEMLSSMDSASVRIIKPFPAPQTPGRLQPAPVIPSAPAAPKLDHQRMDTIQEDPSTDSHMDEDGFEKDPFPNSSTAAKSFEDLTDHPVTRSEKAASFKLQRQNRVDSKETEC
HDAC-3, sequence (O15379 whole entry): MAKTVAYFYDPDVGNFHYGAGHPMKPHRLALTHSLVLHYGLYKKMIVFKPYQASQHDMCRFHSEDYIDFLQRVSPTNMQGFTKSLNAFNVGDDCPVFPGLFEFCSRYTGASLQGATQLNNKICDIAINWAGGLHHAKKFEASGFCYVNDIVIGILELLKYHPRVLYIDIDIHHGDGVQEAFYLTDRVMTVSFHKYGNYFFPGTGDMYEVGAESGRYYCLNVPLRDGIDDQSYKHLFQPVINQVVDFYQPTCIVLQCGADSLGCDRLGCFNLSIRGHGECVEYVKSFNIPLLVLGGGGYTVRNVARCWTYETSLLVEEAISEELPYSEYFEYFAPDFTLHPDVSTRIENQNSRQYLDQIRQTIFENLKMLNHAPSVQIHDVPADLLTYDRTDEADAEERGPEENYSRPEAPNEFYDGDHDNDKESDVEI
HDAC-3, sequence (Q9Y618 395-489 partner limits assumed): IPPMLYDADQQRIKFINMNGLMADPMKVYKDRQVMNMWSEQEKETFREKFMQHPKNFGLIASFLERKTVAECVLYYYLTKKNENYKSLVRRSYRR

For O=C(Nc1ccc(Cl)c(Cl)c1)C(S)CC1CCCCC1 (stereo not shown) [7 b], which IC50 (LasB [1]) is on record?
Its IC50 is 12 ± 3 µM.

With O=C(Nc1ccc(Cl)c(Cl)c1)C(S)CC1CC1 (stereo not shown) [7 c] as the compound, how does the IC50 (LasB [1]) read?
Its IC50 is 6.3 ± 1.2 µM.

Which IC50 [2] does the source give for O=C(Nc1ccccc1)C(S)Cc1ccccc1 (stereo not shown) [7 d] here?
The IC50 was over 100 µM.

And the “inhibition of MMP-1” value (MMP-1)?
The value was “n.i. (n.i. = <10% inhibition)”.

And the “inhibition of MMP-14” value (MMP-14)?
The value was “n.i. (n.i. = <10% inhibition)”.

And the “inhibition of MMP-8” value (MMP-8)?
Its value is 26 ± 4%.

And the “inhibition of MMP-2” value (MMP-2)?
Its value is “n.i. (n.i. = <10% inhibition)”.

What about the MIC (P. aeruginosa PA14) of the same compound?
Its MIC is over 100 µM.

And the MIC (P. aeruginosa PA14; Pseudomonas aeruginosa)?
The MIC was over 100 µM.

What about the “inhibition of MMP-3” value (MMP-3) of the same compound?
The value was “n.i. (n.i. = <10% inhibition)”.

What about the IC50 (HDAC-3) of the same compound?
Its IC50 is over 100 µM.

And the IC50 (Cytotoxicity assay, A549)?
Its IC50 is over 100 µM.

What about the IC50 (HDAC-8) of the same compound?
The IC50 was over 100 µM.

What about the “fold improvement in IC50 value compared to 7 a” value (LasB [1]; versus compound 7 a) of the same compound?
Its value is “two‐fold”.

What about the “inhibition of MMP-7” value (MMP-7) of the same compound?
The value was “n.i. (n.i. = <10% inhibition)”.

What about the IC50 [3] of the same compound?
Its IC50 is over 100 µM.

With Cc1ccccc1NC(=O)C(S)Cc1ccccc1 (stereo not shown) [7 e] as the compound, how does the IC50 (LasB [1]) read?
The IC50 was 2.4 ± 1 µM.

Which IC50 (LasB [1]) does the source give for Cc1cccc(NC(=O)C(S)Cc2ccccc2)c1 (stereo not shown) [7 f] here?
The IC50 was 1 ± 0.4 µM.

Which results are given for Cc1ccc(NC(=O)C(S)Cc2ccccc2)cc1 (stereo not shown) [7 g]?
Ligand Efficiency (LE) (LasB [4]): 0.43; Lipophilic Ligand Efficiency (LLE) (LasB [4]): 2.37; IC50 [2]: > 100 µM; MIC (P. aeruginosa PA14; Pseudomonas aeruginosa): > 100 µM; survival of larvae [5]: up to 60%; survival of larvae, compound in PBS [5]: 100%; IC50 (ADAM17; Table S2, read-out: IC50 ADAM17): 4.8 ± 1.5 µM; IC50 (Cytotoxicity assay, A549): > 100 µM; IC50 (LasB [1]): 0.48 ± 0.04 µM; IC50 [3]: > 100 µM

Which IC50 (LasB [6]) does the source give for CC(C)C[C@H](NP(=O)(O)O[C@@H]1O[C@@H](C)[C@H](O)[C@@H](O)[C@H]1O)C(=O)N[C@@H](Cc1c[nH]c2ccccc12)C(=O)O [Compound 1, phosphoramidon] here?
Its IC50 is 0.207 µM.

Which reduction in viability [7] does the source give for O=C(CS)Nc1ccc(Cl)c(Cl)c1 [Compound 4, N‐(3,4‐dichlorophenyl) mercaptoacetamide] here?
The reduction in viability was 23±3%.

And the IC50 (in vitro [8])?
The IC50 was over 100 µM.

What about the “inhibition of MMP-1” value (MMP-1) of the same compound?
Its value is “n.i. (n.i. = <10% inhibition)”.

And the “inhibition of MMP-14” value (MMP-14)?
Its value is “n.i. (n.i. = <10% inhibition)”.

And the “inhibition of MMP-8” value (MMP-8)?
Its value is “n.i. (n.i. = <10% inhibition)”.

And the “inhibition of MMP-2” value (MMP-2)?
The value was “n.i. (n.i. = <10% inhibition)”.

What about the IC50 (in vitro [9]) of the same compound?
The IC50 was over 100 µM.

What about the MIC (P. aeruginosa PA14; Pseudomonas aeruginosa) of the same compound?
Its MIC is over 100 µM.

What about the “inhibition of MMP-3” value (MMP-3) of the same compound?
The value was “n.i. (n.i. = <10% inhibition)”.

What about the survival of larvae [5] of the same compound?
The survival of larvae was “virtually no improvement in survival”.

What about the “survival of larvae, compound in PBS” value [5] of the same compound?
Its value is 100%.

And the IC50 (HDAC-3)?
The IC50 was over 100 µM.

What about the IC50 (ADAM17) of the same compound?
The IC50 was over 100 µM.

What about the IC50 (in vitro [10]) of the same compound?
Its IC50 is over 100 µM.

What about the IC50 (HDAC-8) of the same compound?
The IC50 was over 100 µM.

What about the “inhibition of MMP-7” value (MMP-7) of the same compound?
The value was “n.i. (n.i. = <10% inhibition)”.

And the reduction in viability [11]?
Its reduction in viability is 33±10%.
